Assay results reported in ChEMBL document CHEMBL1201862, “PubChem BioAssay data set” (2004).
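Five compound concentrations were applied to cells in 96-well plates for 48 hours; endpoints were derived by simple linear interpolation of the resulting dose-response curve. At the GI50, growth is halved.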 Calls of active or inactive are those of the source. Cut-off read from the data, not from the text of the source: active = GI50 up to about 1.1 µM and inactive = higher.

Tests used:
Assay in all cases: NCI-60 cell line screen, 48 h
RXF 393 = system: RXF 393
SW-620 = system: SW-620
IGROV-1 = system: IGROV-1
OVCAR-8 = system: OVCAR-8
COLO 205 = system: COLO 205
SK-OV-3 = system: SK-OV-3
HL-60 = system: HL-60
UO-31 = system: UO-31
K562 = system: K562
HCT-15 = system: HCT-15
HCT-116 = system: HCT-116
SNB-75 = system: SNB-75
Malme-3M = system: Malme-3M
LOX IMVI = system: LOX IMVI
SN12C = system: SN12C
RPMI-8226 = system: RPMI-8226

SMILES	GI50 (RXF 393)	GI50 (SW-620)	GI50 (IGROV-1)	GI50 (OVCAR-8)	GI50 (COLO 205)	GI50 (SK-OV-3)	GI50 (HL-60)	GI50 (UO-31)	GI50 (K562)	GI50 (HCT-15) [µM]	GI50 (HCT-116)	GI50 (SNB-75)	GI50 (Malme-3M)	GI50 (LOX IMVI)	GI50 (SN12C)	GI50 (RPMI-8226)
CCN(CC)CCOC(c1ccccc1)c1ccccc1.CCOC(=O)Nc1ccc(S(=O)(=O)OC)cc1.CCOC(=O)Nc1ccc(S(=O)(=O)OC)cc1.Nc1ccc(C(=O)O)c(O)c1	> 100 µM (inactive)	> 100 µM (inactive)	> 100 µM (inactive)	> 100 µM (inactive)	> 100 µM (inactive)	> 100 µM (inactive)	> 100 µM (inactive)	> 100 µM (inactive)	> 100 µM (inactive)	> 100	> 100 µM (inactive)	> 100 µM (inactive)	> 100 µM (inactive)	> 100 µM (inactive)	> 100 µM (inactive)	–
CCOc1ccc(OCC(=O)O)c2c1CCCC2=O	> 100 µM (inactive)	> 100 µM (inactive)	> 100 µM (inactive)	> 100 µM (inactive)	> 100 µM (inactive)	> 100 µM (inactive)	> 100 µM (inactive)	> 100 µM (inactive)	> 10 µM (inactive)	> 100	–	> 100 µM (inactive)	> 100 µM (inactive)	> 100 µM (inactive)	> 100 µM (inactive)	> 100 µM (inactive)
CCCNC(=O)c1cc2ccccc2cc1C(=O)OC	–	> 100 µM (inactive)	> 100 µM (inactive)	> 100 µM (inactive)	> 100 µM (inactive)	> 100 µM (inactive)	> 100 µM (inactive)	58.5 µM (inactive)	> 100 µM (inactive)	> 100	> 100 µM (inactive)	19.3 µM (inactive)	> 100 µM (inactive)	–	> 100 µM (inactive)	60.8 µM (inactive)
COc1cc(O)c(C(=O)C2Cc3ccccc32)c(OC)c1 (stereo unspecified)	20.3 µM (inactive)	59.7 µM (inactive)	> 100 µM (inactive)	48.3 µM (inactive)	> 100 µM (inactive)	> 100 µM (inactive)	13 µM (inactive)	33.5 µM (inactive)	32.7 µM (inactive)	32.9	38.6 µM (inactive)	37.7 µM (inactive)	35.8 µM (inactive)	51.4 µM (inactive)	46.5 µM (inactive)	16.8 µM (inactive)
COc1ccc(C(=O)c2c(C(C(=O)c3ccc(OC)cc3)C(=O)c3ccc(OC)cc3)n(C(=O)c3ccc(OC)cc3)c3ccccc23)cc1	> 100 µM (inactive)	> 100 µM (inactive)	> 100 µM (inactive)	> 100 µM (inactive)	> 100 µM (inactive)	> 100 µM (inactive)	> 100 µM (inactive)	> 100 µM (inactive)	> 100 µM (inactive)	> 100	> 100 µM (inactive)	> 100 µM (inactive)	> 100 µM (inactive)	> 100 µM (inactive)	> 100 µM (inactive)	> 100 µM (inactive)
O=C1OC(CC(=O)c2ccc(Cl)c(Cl)c2)C(Cl)=C1Cl (stereo unspecified)	> 100 µM (inactive)	> 100 µM (inactive)	> 100 µM (inactive)	> 100 µM (inactive)	> 100 µM (inactive)	> 100 µM (inactive)	82 µM (inactive)	> 100 µM (inactive)	38.8 µM (inactive)	> 100	–	> 100 µM (inactive)	> 100 µM (inactive)	> 100 µM (inactive)	> 100 µM (inactive)	> 100 µM (inactive)
Cc1cc(NS(=O)(=O)c2ccc(NC(=O)c3cccn4c(=O)c5ccccc5nc34)cc2)no1	> 100 µM (inactive)	> 100 µM (inactive)	> 100 µM (inactive)	> 100 µM (inactive)	> 100 µM (inactive)	> 100 µM (inactive)	> 100 µM (inactive)	> 100 µM (inactive)	> 100 µM (inactive)	–	> 100 µM (inactive)	> 100 µM (inactive)	> 100 µM (inactive)	> 100 µM (inactive)	> 100 µM (inactive)	> 100 µM (inactive)
CCOC(OCC)(OCC)C(Br)CC (stereo unspecified)	> 100 µM (inactive)	–	> 100 µM (inactive)	> 100 µM (inactive)	31.8 µM (inactive)	> 100 µM (inactive)	> 100 µM (inactive)	> 100 µM (inactive)	> 100 µM (inactive)	> 10	0.0281 µM (active)	> 100 µM (inactive)	> 100 µM (inactive)	88.1 µM (inactive)	64.9 µM (inactive)	18.8 µM (inactive)
N=C(N)NCCCC(NCc1c2ccccc2[n+]([O-])c2ccccc12)C(=O)O (stereo unspecified)	–	39.8 µM (inactive)	71.9 µM (inactive)	52.5 µM (inactive)	> 100 µM (inactive)	> 100 µM (inactive)	24.9 µM (inactive)	23.6 µM (inactive)	29.7 µM (inactive)	32.9	25.6 µM (inactive)	28.2 µM (inactive)	> 100 µM (inactive)	34.5 µM (inactive)	52.7 µM (inactive)	30.3 µM (inactive)
